Usually EC50 stands for the concentration needed to bring the measured effect to its halfway point.

The values that follow come from patent US11365199B2, “Pyrazole compounds as modulators of FSHR and uses thereof” (Merck Patent GmbH, priority 2013, dated 2022).

Molecules are shown by their SMILES.

The first test addresses T1, FSHR (Homo sapiens, UniProt P23945).
T1 construct: expressed in transfected cells; host or cells: CHO (Cho-FSHR-LUC-1-1-43)
T1 sequence (P23945 18-695): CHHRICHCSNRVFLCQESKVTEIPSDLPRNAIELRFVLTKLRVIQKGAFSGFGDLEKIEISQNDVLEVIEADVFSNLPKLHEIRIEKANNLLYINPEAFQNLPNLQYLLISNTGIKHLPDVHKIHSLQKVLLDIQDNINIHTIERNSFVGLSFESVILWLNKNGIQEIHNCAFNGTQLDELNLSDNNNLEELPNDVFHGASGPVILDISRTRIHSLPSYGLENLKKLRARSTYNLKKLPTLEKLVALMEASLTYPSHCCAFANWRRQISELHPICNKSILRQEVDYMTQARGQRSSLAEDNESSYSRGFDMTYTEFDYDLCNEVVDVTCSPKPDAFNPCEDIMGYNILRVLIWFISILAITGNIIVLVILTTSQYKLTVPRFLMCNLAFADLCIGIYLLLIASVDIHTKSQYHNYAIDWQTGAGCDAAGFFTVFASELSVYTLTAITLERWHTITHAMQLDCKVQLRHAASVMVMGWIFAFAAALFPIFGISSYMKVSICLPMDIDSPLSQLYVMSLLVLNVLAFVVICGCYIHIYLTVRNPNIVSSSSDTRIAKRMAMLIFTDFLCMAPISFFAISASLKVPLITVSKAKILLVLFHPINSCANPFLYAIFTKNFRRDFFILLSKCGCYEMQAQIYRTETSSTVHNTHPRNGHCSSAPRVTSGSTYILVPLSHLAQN
The test is described as follows: EC50 of cyclic AMP production in CHO FSHR cells + EC20 FSH (Assay A). In kind it is cell-based.
Conditions: not given
A digest of the protocol:
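cAMP HTRF read-out (665 nm/620 nm ratio) after 1 h at 37° C of Cho-FSHR-LUC cells treated with serially diluted test compound plus EC20 FSH ([…]) and IBMX (final 200 μM). Responses given as percent of maximal FSH-standard effect.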
Consider `COc1ccc2c(c1)OCc1c(C(=O)N(C)C(C)(C)C)nn(-c3ccsc3)c1-2` [Compound 133, 7-Methoxy-1-thiophen-3-yl-1,4-dihydro-chromeno[4,3-c]pyrazole-3-carboxylic Acid tert-butyl-methyl-amide], for which the EC50 was 1000 to 5000 nM.

Still in this test, the particulars now being: CHO FSHR cells + EC20 FSH, cAMP HTRF; read-out: Assay A: EC50 of cyclic AMP production.
Turning to `COc1cc2c(cc1-c1ccn(C)n1)-c1c(c(C(=O)O[C@H]3CC[C@H](N)C3)nn1-c1ccsc1)CO2` [Compound 180, 7-Methoxy-8-(1-methyl-1H-pyrazol-3-yl)-1-thiophen-3-yl-1,4-dihydro-chromeno[4,3-c]pyrazole-3-carboxylic Acid (1S,3S)-3-amino-cyclopentyl Ester], the EC50 was under 100 nM.
Consider `COc1cc2c(cc1-c1ccsc1C)-c1c(c(C(=O)N(C)C(C)(C)C)nn1-c1ccsc1)CO2` [Compound 75], for which the EC50 is under 100 nM.
Turning to `[2H]C([2H])([2H])N(CCNC(=O)c1nn(-c2ccsc2)c2c1COc1cc(OC)c(C=C(C)C)cc1-2)C(C)=O` [Compound 60], the EC50 is 100 to 1000 nM.
Still for that read-out and setting: the result for `COc1cc2c(cc1OC(C)C)-c1c(c(C(=O)N3CCCC(C(=O)O)CC3)nn1-c1ccsc1)CO2` (stereo not shown) [Compound 25, 1-(8-Isopropoxy-7-methoxy-1-thiophen-3-yl-1,4-dihydro-chromeno[4,3-c]pyrazole-3-carbonyl)-azepane-4-carboxylic acid] reads over 5000 nM.
Same read-out and setting: the result for `COc1cc2c(cc1S(=O)(=O)C(C)C)-c1c(c(C(=O)N3CCOCC3(C)C)nn1-c1ccsc1)CO2` [Compound 112, (3,3-Dimethyl-morpholin-4-yl)-[7-methoxy-8-(propane-2-sulfonyl)-1-thiophen-3-yl-1,4-dihydro-chromeno[4,3-c]pyrazol-3-yl]-methanone] reads 1000 to 5000 nM; that for `COc1cc2c(cc1-c1cnn(C)c1C)-c1c(c(C(=O)N3CCOCC3(C)C)nn1-c1ccsc1)CO2` [Compound 124, (3,3-Dimethyl-morpholin-4-yl)-[8-(1,5-dimethyl-1H-pyrazol-4-yl)-7-methoxy-1-thiophen-3-yl-1,4-dihydro-chromeno[4,3-c]pyrazol-3-yl]-methanone], under 100 nM.
Still for that read-out and setting: with `COc1cc2c(cc1-c1c[nH]nc1C)-c1c(c(C(=O)NC3CC(O)C3)nn1-c1ccsc1)CO2` (stereo not shown) [Compound 138, 7-Methoxy-8-(3-methyl-1H-pyrazol-4-yl)-1-thiophen-3-yl-1,4-dihydro-chromeno[4,3-c]pyrazole-3-carboxylic acid (3-hydroxy-cyclobutyl)-amide] the figure was over 5000 nM; with `CCOCn1cc(-c2cc3c(cc2OC)OCc2c(C(=O)N(C)C(C)(C)C)nn(-c4ccsc4)c2-3)nn1` [Compound 152, 8-(1-Ethoxymethyl-1H-[1,2,3]triazol-4-yl)-7-methoxy-1-thiophen-3-yl-1,4-dihydro-chromeno[4,3-c]pyrazole-3-carboxylic acid tert-butyl-methyl-amide], under 100 nM.
In the case of `COc1cc2c(cc1-c1ccn(C)c1)-c1c(c(C(=O)N[C@H]3CC[C@@H](O)C3)nn1-c1ccsc1)CO2` [Compound 173, 7-Methoxy-8-(1-methyl-1H-pyrrol-3-yl)-1-thiophen-3-yl-1,4-dihydro-chromeno[4,3-c]pyrazole-3-carboxylic acid ((1S,3R)-3-hydroxy-cyclopentyl)-amide], the 50% effective concentration (EC50) was over 5000 nM.
Take `COc1cc2c(cc1C=C(C)C)-c1c(c(C(=O)NC3CCCC(C(=O)OC(C)(C)C)C3)nn1-c1ccsc1)CO2` (stereo not shown) [Compound 15, 3-{[7-Methoxy-8-(2-methyl-propenyl)-1-thiophen-3-yl-1,4-dihydro-chromeno[4,3-c]pyrazole-3-carbonyl]-amino}-cyclohexanecarboxylic acid tert-butyl ester]: the EC50 was over 5000 nM.
As to `[2H]C([2H])([2H])O[C@@H]1CC[C@H](N(C(=O)c2nn(-c3ccsc3)c3c2COc2cc(OC)c(-c4ccn(C)n4)cc2-3)C([2H])([2H])[2H])C1` [Compound 177], the EC50 lay within 1000 to 5000 nM.
For the compound `COc1cc2c(cc1C=C(C)C)-c1c(c(C(=O)NCCCNC(=O)C3CCC3)nn1-c1ccsc1)CO2` [Compound 57, 7-methoxy-8-(2-methyl-propenyl)-1-thiophen-3-yl-1,4-dihydro-chromeno[4,3-c]pyrazole-3-carboxylic Acid [3-(cyclobutanecarbonyl-amino)-propyl]-amide], the EC50 lay within 1000 to 5000 nM.
On to `COc1cc2c(cc1-c1ccn(C)c1)-c1c(c(C(=O)N(C)C(C)(C)C)nn1-c1ccsc1)CO2` [Compound 55, 7-Methoxy-8-(1-methyl-1H-pyrrol-3-yl)-1-thiophen-3-yl-1,4-dihydro-chromeno[4,3-c]pyrazole-3-carboxylic acid tert-butyl-methyl-amide], for which the EC50 is under 100 nM.
Take `COc1cc2c(cc1S(=O)(=O)C(C)C)-c1c(c(C(=O)NC3(CO)COC3)nn1-c1ccsc1)CO2` [Compound 187, 7-Methoxy-8-(propane-2-sulfonyl)-1-thiophen-3-yl-1,4-dihydro-chromeno[4,3-c]pyrazole-3-carboxylic Acid (3-hydroxymethyl-oxetan-3-yl)-amide]: the EC50 is over 5000 nM.
Still for that read-out and setting: the result for `COc1cc2c(cc1-c1cnc(C)s1)-c1c(c(C(=O)N(C)C(C)(C)C)nn1-c1ccsc1)CO2` [Compound 73, 7-Methoxy-8-(2-methyl-thiazol-5-yl)-1-thiophen-3-yl-1,4-dihydro-chromeno[4,3-c]pyrazole-3-carboxylic acid tert-butyl-methyl-amide] reads under 100 nM; that for `COc1cc2c(cc1C=C(C)C)-c1c(c(C(=O)N(C)CCCN(C)C(C)=O)nn1-c1ccsc1)CO2` [Compound 32], 100 to 1000 nM; that for `COc1cc2c(cc1OC(C)C)-c1c(c(C(=O)NCCCN)nn1-c1ccsc1)CO2` [Compound 27, 8-Isopropoxy-7-methoxy-1-thiophen-3-yl-1,4-dihydro-chromeno[4,3-c]pyrazole-3-carboxylic acid (3-amino-propyl)-amide], over 5000 nM.
With `COc1cc2c(cc1-c1ccc(F)s1)-c1c(c(C(=O)N(C)C(C)(C)C)nn1-c1ccsc1)CO2` [Compound 54, 8-(5-Fluoro-thiophen-2-yl)-7-methoxy-1-thiophen-3-yl-1,4-dihydro-chromeno[4,3-c]pyrazole-3-carboxylic acid tert-butyl-methyl-amide], the EC50 is 100 to 1000 nM.
Turning to `COc1cc2c(cc1-c1ccn(C)n1)-c1c(c(C(=O)N(C)C3COC3)nn1-c1ccsc1)CO2` [Compound 104, 7-Methoxy-8-(1-methyl-1H-pyrazol-3-yl)-1-thiophen-3-yl-1,4-dihydro-chromeno[4,3-c]pyrazole-3-carboxylic acid methyl-oxetan-3-yl-amide], the EC50 was 1000 to 5000 nM.
In the case of `[2H]C([2H])([2H])OCC1(C)CCCN1C(=O)c1nn(-c2ccsc2)c2c1COc1cc(OC)c(C=C(C)C)cc1-2` (stereo not shown) [Compound 51], the EC50 is under 100 nM.
With `CCn1nc(C)c(-c2cc3c(cc2OC)OCc2c(C(=O)N4CCOCC4(C)C)nn(-c4ccsc4)c2-3)c1C` [Compound 204, (3,3-Dimethyl-morpholin-4-yl)-[8-(1-ethyl-3,5-dimethyl-1H-pyrazol-4-yl)-7-methoxy-1-thiophen-3-yl-1,4-dihydro-chromeno[4,3-c]pyrazol-3-yl]-methanone], the EC50 was under 100 nM.
With `COc1cc2c(cc1C=C(C)C)-c1c(c(C(=O)N3CCOCC3)nn1-c1ccsc1)CO2` [Compound 117, [7-Methoxy-8-(2-methyl-propenyl)-1-thiophen-3-yl-1,4-dihydro-chromeno[4,3-c]pyrazol-3-yl]-morpholin-4-yl-methanone], the EC50 was 100 to 1000 nM.
On to `COc1cc2c(cc1-c1cn(C)cn1)-c1c(c(C(=O)N(C)C(C)(C)C)nn1-c1ccsc1)CO2` [Compound 129, 7-Methoxy-8-(1-methyl-1H-imidazol-4-yl)-1-thiophen-3-yl-1,4-dihydro-chromeno[4,3-c]pyrazole-3-carboxylic acid tert-butyl-methyl-amide], for which the EC50 is under 100 nM.
On to `COc1cc2c(cc1OC(C)C)-c1c(c(C(=O)N(C)CCCN(C)C(=O)C3CCC3)nn1-c1ccsc1)CO2` [Compound 30], for which the EC50 was 100 to 1000 nM.
In the case of `COc1cc2c(cc1-c1sccc1C)-c1c(c(C(=O)N(C)C(C)(C)C)nn1-c1ccsc1)CO2` [Compound 88, 7-Methoxy-8-(3-methyl-thiophen-2-yl)-1-thiophen-3-yl-1,4-dihydro-chromeno[4,3-c]pyrazole-3-carboxylic acid tert-butyl-methyl-amide], the EC50 is under 100 nM.
With `COc1cc2c(cc1-c1cnn(C)c1)-c1c(c(C(=O)N(C)C(C)(C)C)nn1-c1ccsc1)CO2` [Compound 66, 7-Methoxy-8-(1-methyl-1H-pyrazol-4-yl)-1-thiophen-3-yl-1,4-dihydro-chromeno[4,3-c]pyrazole-3-carboxylic acid tert-butyl-methyl-amide], the EC50 is under 100 nM.
Regarding `COc1cc2c(cc1C=C(C)C)-c1c(c(C(=O)N3CCC(C(=O)O)CC3)nn1-c1ccsc1)CO2` [Compound 16, 1-{7-Methoxy-8-(2-methyl-propenyl)-1-thiophen-3-yl-1,4-dihydro-chromeno[4,3-c]pyrazole-3-carbonyl]-piperidine-4-carboxylic acid], the EC50 was over 5000 nM.
